pIC50: −log10 of the molar value.
What follows are compounds tested against T1, human HSL (Homo sapiens, UniProt Q05469) (assay: Human Hormone-Sensitive Lipase (HSL) Enzyme Inhibition Assay). Settings: colorimetric assay, 2,3-dimercapto-1-propanol tributyrate (DMPT) substrate, 37° C. for 20 minutes, absorbance at 405 nm; read-out: HSL hum IC50.
T1 construct: overlapping PCR to generate a full length human HSL ORF with a 3′-His6 tag; His6 (C); made in house; host or cells: High 5 insect cells (baculovirus, pFast-BAC)
T1 sequence (Q05469 1-1076): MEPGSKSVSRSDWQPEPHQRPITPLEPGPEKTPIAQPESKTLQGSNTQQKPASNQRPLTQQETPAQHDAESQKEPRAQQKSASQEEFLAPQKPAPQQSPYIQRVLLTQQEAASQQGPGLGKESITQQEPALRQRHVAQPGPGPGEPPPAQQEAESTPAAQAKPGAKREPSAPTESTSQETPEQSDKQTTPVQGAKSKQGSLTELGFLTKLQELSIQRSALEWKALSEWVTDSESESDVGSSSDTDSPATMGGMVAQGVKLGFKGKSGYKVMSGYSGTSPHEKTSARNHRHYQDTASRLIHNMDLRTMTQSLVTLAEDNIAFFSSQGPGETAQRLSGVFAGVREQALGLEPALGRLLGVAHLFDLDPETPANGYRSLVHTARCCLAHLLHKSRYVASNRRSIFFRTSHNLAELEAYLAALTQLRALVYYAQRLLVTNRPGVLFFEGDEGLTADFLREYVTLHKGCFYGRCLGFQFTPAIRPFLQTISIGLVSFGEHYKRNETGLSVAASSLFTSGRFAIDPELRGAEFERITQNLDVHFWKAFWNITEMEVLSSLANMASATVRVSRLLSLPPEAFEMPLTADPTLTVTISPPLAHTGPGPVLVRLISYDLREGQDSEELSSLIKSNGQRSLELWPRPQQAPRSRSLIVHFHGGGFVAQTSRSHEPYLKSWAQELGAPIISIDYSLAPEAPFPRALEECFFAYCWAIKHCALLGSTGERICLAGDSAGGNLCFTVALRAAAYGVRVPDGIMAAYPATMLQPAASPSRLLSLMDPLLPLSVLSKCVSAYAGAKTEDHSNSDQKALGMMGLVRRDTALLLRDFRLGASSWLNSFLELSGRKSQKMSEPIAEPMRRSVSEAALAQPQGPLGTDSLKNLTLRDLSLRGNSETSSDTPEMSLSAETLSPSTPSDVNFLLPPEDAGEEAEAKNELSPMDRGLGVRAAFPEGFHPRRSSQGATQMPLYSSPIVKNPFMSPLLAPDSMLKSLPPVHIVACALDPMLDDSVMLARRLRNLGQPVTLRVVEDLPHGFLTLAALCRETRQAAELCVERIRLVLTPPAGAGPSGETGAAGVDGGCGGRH
Format: biochemical
Method in brief: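 Colorimetric thioester hydrolysis: compounds in DMSO series mixed with DMPT (1.5 mM) in MOPS pH 7.2 with BSA, then baculovirus-expressed His6-tagged full-length human HSL added, 37° C, 20 min. DTNB plus detergents added, 15 min room temperature, absorbance at 405 nm.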

Structure (SMILES)	pIC50
O=C1N(c2ccc(OC(F)(F)F)cc2)CCC12CCN(S(=O)(=O)c1ccccc1C(F)(F)F)CC2 [Example 68, 2-(4-Trifluoromethoxy-phenyl)-8-(2-trifluoromethyl-benzenesulfonyl)-2,8-diaza-spiro[4.5]decan-1-one]	7.40
CCc1ccc(N2CCC3(CCN(S(=O)(=O)c4ccc(C(F)(F)F)cc4Cl)CC3)C2=O)cc1 [Example 69, 8-(2-Chloro-4-trifluoromethyl-benzenesulfonyl)-2-(4-ethyl-phenyl)-2,8-diaza-spiro[4.5]decan-1-one]	6.51
O=C1N(c2ccc(OC(F)(F)F)cc2)CCC12CCN(S(=O)(=O)c1ccc(C(F)(F)F)cc1Cl)CC2 [Example 70, 8-(2-Chloro-4-trifluoromethyl-benzenesulfonyl)-2-(4-trifluoromethoxy-phenyl)-2,8-diaza-spiro[4.5]decan-1-one]	6.85
O=C1N(c2ccc(C3CC3)cc2)CCC12CCN(S(=O)(=O)c1ccccc1C(F)(F)F)CC2 [Example 71, 2-(4-Cyclopropyl-phenyl)-8-(2-trifluoromethyl-benzenesulfonyl)-2,8-diaza-spiro[4.5]decan-1-one]	7.10
O=C1N(c2ccc(C3CC3)cc2)CCC12CCN(S(=O)(=O)c1ccc(F)cc1C(F)(F)F)CC2 [Example 72, 2-(4-Cyclopropyl-phenyl)-8-(4-fluoro-2-trifluoromethyl-benzenesulfonyl)-2,8-diaza-spiro[4.5]decan-1-one]	6.96
O=C1N(c2ccc(CC(F)(F)F)cc2)CCC12CCN(S(=O)(=O)c1ccccc1C(F)(F)F)CC2 [Example 73, 2-[4-(2,2,2-Trifluoro-ethyl)-phenyl]-8-(2-trifluoromethyl-benzenesulfonyl)-2,8-diaza-spiro[4.5]decan-1-one]	7.10
CCc1ccc(N2CCC3(CCN(S(=O)(=O)c4ccccc4I)CC3)C2=O)cc1 [Example 74, 2-(4-Ethyl-phenyl)-8-(2-iodo-benzenesulfonyl)-2,8-diaza-spiro[4.5]decan-1-one]	6.70
CCc1ccc(N2CCC3(CCN(S(=O)(=O)c4ccc(F)cc4C(F)(F)F)CC3)C2=O)cc1 [Example 75, 2-(4-Ethyl-phenyl)-8-(4-fluoro-2-trifluoromethyl-benzenesulfonyl)-2,8-diaza-spiro[4.5]decan-1-one]	6.59
O=C1N(c2ccc(OC(F)(F)F)cc2)CCC12CCN(S(=O)(=O)c1ccc(F)cc1C(F)(F)F)CC2 [Example 76, 8-(4-Fluoro-2-trifluoromethyl-benzenesulfonyl)-2-(4-trifluoromethoxy-phenyl)-2,8-diaza-spiro[4.5]decan-1-one]	6.72
O=C1N(c2ccc(C3CC3)cc2)CCC12CCN(S(=O)(=O)c1ccc(C(F)(F)F)cc1Cl)CC2 [Example 77, 8-(2-Chloro-4-trifluoromethyl-benzenesulfonyl)-2-(4-cyclopropyl-phenyl)-2,8-diaza-spiro[4.5]decan-1-one]	6.74
O=C1N(c2ccc(CC(F)(F)F)cc2)CCC12CCN(S(=O)(=O)c1ccccc1OC(F)(F)F)CC2 [Example 78, 2-[4-(2,2,2-Trifluoro-ethyl)-phenyl]-8-(2-trifluoromethoxy-benzenesulfonyl)-2,8-diaza-spiro[4.5]decan-1-one]	7.52
O=C1N(c2ccc(OCC(F)(F)F)cc2)CCC12CCN(S(=O)(=O)c1ccccc1OC(F)(F)F)CC2 [Example 79, 2-[4-(2,2,2-Trifluoro-ethoxy)-phenyl]-8-(2-trifluoromethoxy-benzenesulfonyl)-2,8-diaza-spiro[4.5]decan-1-one]	7.40
O=C1N(c2ccc(OS(=O)(=O)C3CC3)cc2)CCC12CCN(S(=O)(=O)c1ccccc1OC(F)(F)F)CC2 [Example 80, Cyclopropanesulfonic acid 4-[1-oxo-8-(2-trifluoromethoxy-benzenesulfonyl)-2,8-diaza-spiro[4.5]dec-2-yl]-phenyl ester]	7.30
O=C1N(c2ccc(CC(F)(F)F)cc2)CCC12CCN(S(=O)(=O)c1ccc(F)cc1C(F)(F)F)CC2 [Example 81, 8-(4-Fluoro-2-trifluoromethyl-benzenesulfonyl)-2-[4-(2,2,2-trifluoro-ethyl)-phenyl]-2,8-diaza-spiro[4.5]decan-1-one]	7.05
O=C1N(c2ccc(C3CC3)cc2)CCC12CCN(S(=O)(=O)c1ccccc1OC(F)(F)F)CC2 [Example 82, 2-(4-Cyclopropyl-phenyl)-8-(2-trifluoromethoxy-benzenesulfonyl)-2,8-diaza-spiro[4.5]decan-1-one]	6.96
CS(=O)(=O)Oc1ccc(N2CCC3(CCN(S(=O)(=O)c4ccc(F)cc4C(F)(F)F)CC3)C2=O)cc1 [Example 83, Methanesulfonic acid 4-[8-(4-fluoro-2-trifluoromethyl-benzenesulfonyl)-1-oxo-2,8-diaza-spiro[4.5]dec-2-yl]-phenyl ester]	7.40
CCCCOc1ccc(N2CCC3(CCN(S(=O)(=O)CC(C)C)CC3)C2=O)cc1 [Example 84, 2-(4-Butoxy-phenyl)-8-(2-methyl-propane-1-sulfonyl)-2,8-diaza-spiro[4.5]decan-1-one]	6.70
CCC(C)Oc1ccc(N2CCC3(CCN(S(=O)(=O)CC(C)C)CC3)C2=O)cc1 (stereo not shown) [Example 85, 2-(4-sec-Butoxy-phenyl)-8-(2-methyl-propane-1-sulfonyl)-2,8-diaza-spiro[4.5]decan-1-one]	7.00
CC(C)CS(=O)(=O)N1CCC2(CCN(c3ccc(OC(C)C(F)(F)F)cc3)C2=O)CC1 (stereo not shown) [Example 86, 8-(2-Methyl-propane-1-sulfonyl)-2-[4-(2,2,2-trifluoro-1-methyl-ethoxy)-phenyl]-2,8-diaza-spiro[4.5]decan-1-one]	7.10
CC(C)Oc1ccc(N2CCC3(CCN(S(=O)(=O)c4ccccc4OC(F)(F)F)CC3)C2=O)cc1 [Example 87, 2-(4-Isopropoxy-phenyl)-8-(2-trifluoromethoxy-benzenesulfonyl)-2,8-diaza-spiro[4.5]decan-1-one]	7.70
CCCCOc1ccc(N2CCC3(CCN(S(=O)(=O)c4ccccc4OC(F)(F)F)CC3)C2=O)cc1 [Example 88, 2-(4-Butoxy-phenyl)-8-(2-trifluoromethoxy-benzenesulfonyl)-2,8-diaza-spiro[4.5]decan-1-one]	7.30
CC(Oc1ccc(N2CCC3(CCN(S(=O)(=O)c4ccccc4OC(F)(F)F)CC3)C2=O)cn1)C(F)(F)F (stereo not shown) [Example 89, 8-(2-Trifluoromethoxy-benzenesulfonyl)-2-[6-(2,2,2-trifluoro-1-methyl-ethoxy)-pyridin-3-yl]-2,8-diaza-spiro[4.5]decan-1-one]	7.52
CCC(C)Oc1ccc(N2CCC3(CCN(S(=O)(=O)c4ccccc4OC(F)(F)F)CC3)C2=O)cc1 (stereo not shown) [Example 90, 2-(4-sec-Butoxy-phenyl)-8-(2-trifluoromethoxy-benzenesulfonyl)-2,8-diaza-spiro[4.5]decan-1-one]	7.70
C=Cc1ccc(N2CCC3(CCN(S(=O)(=O)c4ccccc4Cl)CC3)C2=O)cc1 [Example 91, 8-(2-Chloro-benzenesulfonyl)-2-(4-vinyl-phenyl)-2,8-diaza-spiro[4.5]decan-1-one]	7.40
CC(C)Oc1ccc(N2CCC3(CCN(S(=O)(=O)CC4CCC4)CC3)C2=O)cc1 [Example 92, 8-Cyclobutylmethanesulfonyl-2-(4-isopropoxy-phenyl)-2,8-diaza-spiro[4.5]decan-1-one]	6.77
O=C1N(c2ccc(OC(F)(F)F)cc2)CCC12CCN(S(=O)(=O)CC1CCC1)CC2 [Example 93, 8-Cyclobutylmethanesulfonyl-2-(4-trifluoromethoxy-phenyl)-2,8-diaza-spiro[4.5]decan-1-one]	7.05
CC(C)CS(=O)(=O)N1CCC2(CCN(c3ccc(OCC4CC4)cc3)C2=O)CC1 [Example 94, 2-(4-Cyclopropylmethoxy-phenyl)-8-(2-methyl-propane-1-sulfonyl)-2,8-diaza-spiro[4.5]decan-1-one]	6.57
CC(C)Oc1ccc(N2CCC3(CCN(S(=O)(=O)C4CC4)CC3)C2=O)cc1 [Example 95, 8-Cyclopropanesulfonyl-2-(4-isopropoxy-phenyl)-2,8-diaza-spiro[4.5]decan-1-one]	6.44

From patent US8329904B2, “Azacyclic derivatives” (Hoffmann-La Roche Inc., priority 2009, dated 2012)
